From patent publication US4973675A, “Hybrid nitrosoureidoanthracyclines having antitumor activity” (University of Tennessee Research Center, priority 1989, dated 1990)
“Also recorded” adds a separate entry of the source.

Assays:
[1] = system: human CEM leukemic lymphocytes; assay: Growth inhibition of human CEM leukemic lymphocyte suspension cultures, 48 h continuous drug exposure (ID50); assay type: cell-based
Description: (§1) Culture and bioassay conditions were as described in Cancer Chemotherapy Pharmacology 20:277 (1987) "Comparative Effects of Adriamycin and DNA-nonbinding Analogues on DNA, RNA, and Protein Synthesis in Vitro", Israel et al., except that cell counts were determined by hemocytometer rather than by automated cell counting.

[2] = system: murine L1210 leukemia cells; assay: Clonogenic assay with cultured murine L1210 leukemia cells, 1 h drug exposure (LD90); assay type: cell-based
Description: as §1
+Dose killing 90% of clonogens, 1hr. drug exposure.

murine P388 leukemia = assay: In vivo antitumor activity vs. murine P388 (P388/S) leukemia; set-up: species or system murine (B6D2F1 males); conditions: for Long-term survivors / Median increase in lifespan / Median survival / Net mean percent weight change, day 7 / Range of deaths (dying animals) / Range of death (dying animals): ip
From the text: Initial studies utilized a multiple dose schedule, with drug administered once daily on days 1, 2, 3 and 4. […] The marked activity of AD 312 in this system has been confirmed in multiple separate experiments.
Additional studies were done with AD 312 vs. murine P388/S under more demanding conditions of assay.
^a Summary results of 4 separate experiments. B6D2F1 males; 1 ×

red blood cells = assay: Hematotoxicity study in non-tumor-bearing animals, red blood cell count; assay type: in vivo, mice; conditions: 3 dose levels
From the text: Clinically and in laboratory animals, anthracycline antibiotics and chloroethylnitrosourea alkylating agents currently used in medical oncology are known to be strongly myelosuppressive, with the effects of the alkylating agents on suppression of bone marrow activity being particularly profound and long-lasting.

calf thymus DNA = assay: Interstrand cross-link formation in isolated calf thymus DNA, ethidium bromide fluorescence assay; assay type: biochemical
Description: To further assess the alkylation potential of AD 312, the ability of this agent to form interstrand cross-links in isolated calf thymus DNA was examined using an ethidium bromide fluorescence assay. […] In one set of experiments, DNA was exposed briefly to AD 312 (30 minutes at 50° C.) before being reisolated by precipitation with ethanol. […] Such continuing reaction reflects the presence in the DNA of long-lived precursors of crosslinks similar to what has been found for the classical antitumor chloroethylnitrosoureas. […] It appears, therefore, that AD 312 induces DNA interstrand crosslinks via an initial adduct at O^6 -guanine.

[3] = system: murine P388/adriamycin-resistant leukemia; assay: In vivo antitumor activity vs. murine P388/adriamycin-resistant leukemia (P388/ADR); conditions: for Median increase in lifespan / Net mean percent weight change, day 7 / Long-term survivors / Range of death (dying animals): ip; for Long-term survivors: sacrifice day 60
From the text: Assays were run essentially according to the established protocols of the U.S. National Cancer Institute (Geran et al., 1972 "Protocols for Screening Chemical Agents and Natural Products Against Animal Tumors and Other Biological Systems" (3rd Ed.), Cancer Chemotherapy Rep. [3]33, 1-103.), with the test agent given at 3-5 incremental dose levels in each screening experiment and with median survival of treated groups referenced against data for untreated controls.
*B6D2F1 males; 1 × 10^6 tumor cell inoculum ip day 0; treatment

[4] = P388/S, 17.5 mg/kg/day, days 1-4
[5] = P388/S, single dose 40.5 mg/kg day 1
[6] = P388/S, single dose 40.5 mg/kg day 3
[7] = P388/ADR, single dose 40.5 mg/kg day 1

COc1cccc2c1C(=O)c1c(O)c3c(c(O)c1C2=O)C[C@@](O)(C(C)=O)C[C@@H]3O[C@H]1C[C@H](NC(=O)N(CCCl)N=O)[C@H](O)[C@H](C)O1 [AD 312, 2-chloroethylnitrosoureidodaunorubicin]
growth inhibitory activity ([1]; CEM in vitro): moderate to marked growth inhibitory activity; also recorded: somewhat less active
IC50 ([1]; Homo sapiens, Lymphocyte, CEM, 48 hr continuous drug exposure (Table 2), read-out: ID50 (the source's name)): 90 nM
clonogenic cell kill ([2]; L1210, 1 hour exposure): most potent of the six agents compared
IC90 ([2]; Mus musculus, L1210, 1 hr drug exposure, read-out: L1210 LD90 (dose killing 90% of clonogens)): 260 nM
60-day survival (murine P388 leukemia; [4]): 100%
drug toxicity (murine P388 leukemia; [4]): without evidence of drug toxicity
autopsy of surviving animals (murine P388 leukemia; P388/S, gross examination at termination): no evidence of tumor or other abnormalities was observed on gross examination
60-day survival (murine P388 leukemia; [5]): 100%
antitumor effect (murine P388 leukemia; [5]): significant antitumor effect
dose toxicity (murine P388 leukemia; [5]): nontoxic
animals cured (murine P388 leukemia; [6]): 6 of 7
day of the lone death (murine P388 leukemia; [6]): 45 days
Long-term survivors (murine P388 leukemia; 0.5 mg/kg qd 1-4): 0/7
Median increase in lifespan (murine P388 leukemia; 0.5 mg/kg qd 1-4): +10%
Median survival (murine P388 leukemia; 0.5 mg/kg qd 1-4): 11 days
Net mean percent weight change, day 7 (murine P388 leukemia; 0.5 mg/kg qd 1-4): +13%
Range of deaths (dying animals) (murine P388 leukemia; 0.5 mg/kg qd 1-4): 10 to 11 days
Long-term survivors (murine P388 leukemia; 1.0 mg/kg qd 1-4): 0/7
Median increase in lifespan (murine P388 leukemia; 1.0 mg/kg qd 1-4): +20%
Median survival (murine P388 leukemia; 1.0 mg/kg qd 1-4): 12 days
Net mean percent weight change, day 7 (murine P388 leukemia; 1.0 mg/kg qd 1-4): +6%
Range of deaths (dying animals) (murine P388 leukemia; 1.0 mg/kg qd 1-4): 11 to 18 days
Long-term survivors (murine P388 leukemia; 2.0 mg/kg qd 1-4 (Table 4)): 0/7
Median increase in lifespan (murine P388 leukemia; 2.0 mg/kg qd 1-4 (Table 4)): +30%
Median survival (murine P388 leukemia; 2.0 mg/kg qd 1-4 (Table 4)): 13 days
Net mean percent weight change, day 7 (murine P388 leukemia; 2.0 mg/kg qd 1-4 (Table 4)): +7%
Range of deaths (dying animals) (murine P388 leukemia; 2.0 mg/kg qd 1-4 (Table 4)): 12 to 14 days
Long-term survivors (murine P388 leukemia; 2.7 mg/kg qd 1-4): 0/7
Median increase in lifespan (murine P388 leukemia; 2.7 mg/kg qd 1-4): +60%
Median survival (murine P388 leukemia; 2.7 mg/kg qd 1-4): 16 days
Net mean percent weight change, day 7 (murine P388 leukemia; 2.7 mg/kg qd 1-4): +4%
Range of deaths (dying animals) (murine P388 leukemia; 2.7 mg/kg qd 1-4): 16 to 17 days
Long-term survivors (murine P388 leukemia; 4.0 mg/kg qd 1-4 (Table 4)): 0/7
Median increase in lifespan (murine P388 leukemia; 4.0 mg/kg qd 1-4 (Table 4)): +75%
Median survival (murine P388 leukemia; 4.0 mg/kg qd 1-4 (Table 4)): 17.5 days
Net mean percent weight change, day 7 (murine P388 leukemia; 4.0 mg/kg qd 1-4 (Table 4)): +2%
Range of deaths (dying animals) (murine P388 leukemia; 4.0 mg/kg qd 1-4 (Table 4)): 15 to 20 days
Long-term survivors (murine P388 leukemia; 6.0 mg/kg qd 1-4): 0/7
Median increase in lifespan (murine P388 leukemia; 6.0 mg/kg qd 1-4): +110%
Median survival (murine P388 leukemia; 6.0 mg/kg qd 1-4): 21 days
Net mean percent weight change, day 7 (murine P388 leukemia; 6.0 mg/kg qd 1-4): +4%
Range of deaths (dying animals) (murine P388 leukemia; 6.0 mg/kg qd 1-4): 19 to 24 days
Median increase in lifespan (murine P388 leukemia; 9.0 mg/kg qd 1-4): +250%
Median survival (murine P388 leukemia; 9.0 mg/kg qd 1-4): 35 days
Net mean percent weight change, day 7 (murine P388 leukemia; 9.0 mg/kg qd 1-4): -2%
Range of deaths (dying animals) (murine P388 leukemia; 9.0 mg/kg qd 1-4): 24 to 35 days
Long-term survivors (murine P388 leukemia; 9.0 mg/kg qd 1-4, sacrifice day 43): 3/7
Median increase in lifespan (murine P388 leukemia; 10.0 mg/kg qd 1-4): > +500%
Net mean percent weight change, day 7 (murine P388 leukemia; 10.0 mg/kg qd 1-4): -1%
Range of deaths (dying animals) (murine P388 leukemia; 10.0 mg/kg qd 1-4): 38 days
Long-term survivors (murine P388 leukemia; 10.0 mg/kg qd 1-4, sacrifice day 60): 5/7
Median increase in lifespan (murine P388 leukemia; 11.0 mg/kg qd 1-4): > +500%
Net mean percent weight change, day 7 (murine P388 leukemia; 11.0 mg/kg qd 1-4): +1%
Range of deaths (dying animals) (murine P388 leukemia; 11.0 mg/kg qd 1-4): 28 days
Long-term survivors (murine P388 leukemia; 11.0 mg/kg qd 1-4, sacrifice day 60): 5/6
Long-term survivors (murine P388 leukemia; 12.0 mg/kg day 1 only): 0/7
Median increase in lifespan (murine P388 leukemia; 12.0 mg/kg day 1 only): +100%
Median survival (murine P388 leukemia; 12.0 mg/kg day 1 only): 20 days
Net mean percent weight change, day 7 (murine P388 leukemia; 12.0 mg/kg day 1 only): +6%
Range of death (dying animals) (murine P388 leukemia; 12.0 mg/kg day 1 only): 16 to 22 days
Median increase in lifespan (murine P388 leukemia; 12.5 mg/kg qd 1-4): > +540%
Range of deaths (dying animals) (murine P388 leukemia; 12.5 mg/kg qd 1-4): 35 to 40 days
Long-term survivors (murine P388 leukemia; 12.5 mg/kg qd 1-4, sacrifice day 64): 4/7
Median increase in lifespan (murine P388 leukemia; 15.0 mg/kg qd 1-4): > +540%
Net mean percent weight change, day 7 (murine P388 leukemia; 15.0 mg/kg qd 1-4): -1%
Range of deaths (dying animals) (murine P388 leukemia; 15.0 mg/kg qd 1-4): 32 to 39 days
Long-term survivors (murine P388 leukemia; 15.0 mg/kg qd 1-4, sacrifice day 64): 4/7
Median increase in lifespan (murine P388 leukemia; 17.5 mg/kg qd 1-4): > +540%
Net mean percent weight change, day 7 (murine P388 leukemia; 17.5 mg/kg qd 1-4): -1%
Long-term survivors (murine P388 leukemia; 17.5 mg/kg qd 1-4, sacrifice day 64): 6/6
Median increase in lifespan (murine P388 leukemia; 18.0 mg/kg day 1 only): +210%
Median survival (murine P388 leukemia; 18.0 mg/kg day 1 only): 31 days
Net mean percent weight change, day 7 (murine P388 leukemia; 18.0 mg/kg day 1 only): +7%
Range of death (dying animals) (murine P388 leukemia; 18.0 mg/kg day 1 only): 18 to 35 days
Long-term survivors (murine P388 leukemia; 18.0 mg/kg day 1 only, sacrifice day 60): 1/7
Median increase in lifespan (murine P388 leukemia; 27.0 mg/kg day 1 only): +230%
Median survival (murine P388 leukemia; 27.0 mg/kg day 1 only): 33 days
Net mean percent weight change, day 7 (murine P388 leukemia; 27.0 mg/kg day 1 only): +9%
Range of death (dying animals) (murine P388 leukemia; 27.0 mg/kg day 1 only): 23 to 33 days
Long-term survivors (murine P388 leukemia; 27.0 mg/kg day 1 only, sacrifice day 60): 3/7
Long-term survivors (murine P388 leukemia; 27.0 mg/kg day 3 only): 0/7
Median increase in lifespan (murine P388 leukemia; 27.0 mg/kg day 3 only): +210%
Median survival (murine P388 leukemia; 27.0 mg/kg day 3 only): 31 days
Net mean percent weight change, day 7 (murine P388 leukemia; 27.0 mg/kg day 3 only): +17%
Range of death (dying animals) (murine P388 leukemia; 27.0 mg/kg day 3 only): 12 to 49 days
Median increase in lifespan (murine P388 leukemia; 40.5 mg/kg day 1 only): > +500%
Net mean percent weight change, day 7 (murine P388 leukemia; 40.5 mg/kg day 1 only): -3%
Long-term survivors (murine P388 leukemia; 40.5 mg/kg day 1 only, sacrifice day 60): 7/7
Median increase in lifespan (murine P388 leukemia; 40.5 mg/kg day 3 only): > +500%
Net mean percent weight change, day 7 (murine P388 leukemia; 40.5 mg/kg day 3 only): -4%
Range of death (dying animals) (murine P388 leukemia; 40.5 mg/kg day 3 only): 45 days
Long-term survivors (murine P388 leukemia; 40.5 mg/kg day 3 only, sacrifice day 60): 6/7
toxicity / myelosuppression at curative doses (murine P388 leukemia; tumor-bearing animals): No such effect appears to be present in tumor-bearing animals; also recorded: lack of toxicity at the curative dose levels
change in red blood cell counts (red blood cells): No significant change in red blood cells counts
interstrand crosslink formation (calf thymus DNA; 10 mM, 4 hours at 50° C.): appreciable interstrand crosslinks
continued crosslink formation after drug removal (calf thymus DNA; 30 min exposure at 50° C., DNA reisolated, further incubation at 50° C.): crosslinks continued to form for several hours
effect of O^6-alkylguanine-DNA alkyltransferase on crosslink formation (calf thymus DNA; enzyme added to AD 312-treated DNA): can block the protracted second step in crosslink formation
curative rate ([3]; P388/ADR, once daily for 4 days, 15.0 to 20.0 mg/kg/day (3 dose levels)): 100%
dose toxicity [3, 7]: nontoxic
therapeutic effect [3, 7]: significant therapeutic effect
Median increase in lifespan ([3]; 15.0 mg/kg qd 1-4): > +500%
Net mean percent weight change, day 7 ([3]; 15.0 mg/kg qd 1-4): -4%
Long-term survivors ([3]; 15.0 mg/kg qd 1-4): 7/7
Median increase in lifespan ([3]; 17.5 mg/kg qd 1-4): > +500%
Net mean percent weight change, day 7 ([3]; 17.5 mg/kg qd 1-4): -9%
Long-term survivors ([3]; 17.5 mg/kg qd 1-4): 7/7
Median increase in lifespan ([3]; 20.0 mg/kg qd 1-4): > +500%
Net mean percent weight change, day 7 ([3]; 20.0 mg/kg qd 1-4): -9%
Long-term survivors ([3]; 20.0 mg/kg qd 1-4): 7/7
Median increase in lifespan ([3]; 27.0 mg/kg d1 only): > +500%
Net mean percent weight change, day 7 ([3]; 27.0 mg/kg d1 only): +5%
Range of death (dying animals) ([3]; 27.0 mg/kg d1 only): 19,26 days
Long-term survivors ([3]; 27.0 mg/kg d1 only): 5/7
Median increase in lifespan ([3]; 40.5 mg/kg d1 only): > +500%
Net mean percent weight change, day 7 ([3]; 40.5 mg/kg d1 only): -0.5%
Range of death (dying animals) ([3]; 40.5 mg/kg d1 only): 13,27 days
Long-term survivors ([3]; 40.5 mg/kg d1 only): 5/7
